From patent publication US10323007B1, “N2N N4-disubstituted quinazoline-2,4-diamines and uses thereof” (University of South Florida, priority 2016, dated 2019)
Converted amounts (≈) assume the structure as drawn. Where two headings read alike, the source gives them in different places.

Tests used:
[1] = system: A. baumannii 1650; assay: minimal bactericidal concentration (MBC) assay, strain 1650; format: cell-based; settings: Acinetobacter baumannii, Table 8, read-out: MBC90 1650
Text: (§1) Lead quinazolines 4, 5, 26, 29, 27, and 30 were selected to be further evaluated for antimicrobial effects. The first assay utilized was a minimal bactericidal concentration (MBC) assay, to assess whether leads compounds were bacteriostatic or bactericidal. The six lead agents were screened to identify their MBC90 towards each of the six A. baumannii isolates used in the SAR studies (Table 8), however for simplicity only the representative data for isolate 1646 is detailed below (Table 6). […] Further to this, we were able to obtain complete eradication of bacterial growth for these two compounds at 1 μM for 24 and 5 μM for 25.
(§2) MIC and MBC assays were performed in this study as documented by us previously.^17,23,24,25 The A. baumannii strains used are detailed in Table 7.

[2] = system: A. baumannii strain 1403; format: cell-based, Acinetobacter baumannii; settings: serial passage, 8 days, start 0.5× MIC
Method: An important attribute of novel antibiotics is the ability to fend off the development of resistance towards their effects. To assess this capacity, A. baumannii strains were incubated overnight with 0.5× MIC of each of the frontrunners. The next day cells were washed and used to inoculate fresh media that contained a two-fold increase in drug. This was repeated for a total of 8 days, alongside sulfamethoxazole (SMX) and trimethoprim (TMP) controls, both of which target the same pathway as our lead agents (FIG. 2).
In order to test potential resistance towards the quinazolines, a serial passage assay was performed alongside control compounds (Sulfamethoxazole and Trimethoprim), as described by us previously.^24 A. baumannii strain 1403 was grown overnight in LB media at 37° C. The next day cultures were diluted 1:100 in fresh media and seeded into a 96-well plate. Lead quinazolines or control agents were added to respective wells at half MIC concentrations. […] These were then grown overnight, and the procedure repeated for a total of eight days.

[3] = system: A. baumannii 1650; assay: MIC assay, strain 1650; format: cell-based, Acinetobacter baumannii; settings: strain 1650
Method: as §2

[4] = system: A. baumannii 1649; assay: minimal bactericidal concentration (MBC) assay, strain 1649; format: cell-based; settings: Acinetobacter baumannii, Table 8, read-out: MBC90 1649
Text: as §1, §2

[5] = system: A. baumannii 1646; assay: minimal bactericidal concentration (MBC) assay, strain 1646; format: cell-based, Acinetobacter baumannii
Summary of the method: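 MBC90 determined against A. baumannii clinical isolates to distinguish bactericidal from bacteriostatic activity, following the group's previously published MIC/MBC protocol.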

[6] = system: A. baumannii 1403; assay: MIC assay, strain 1403; format: cell-based, Acinetobacter baumannii; settings: strain 1403; for MIC: Acinetobacter baumannii
Method: as §2

Compound: CNc1nc(NCc2ccccc2)nc2ccc(C)cc12 [Compound 5, N^2-Benzyl-N^4,6-dimethylquinazoline-2,4-diamine]
- MBC [1]: 27 µM (≈ 7.52 µg/mL)
- increase in MIC over the 8-day test period [2]: 4 fold
- MIC ([3]; Acinetobacter baumannii, Table 2, read-out: 1650 MIC): 50 µM (≈ 13.9 µg/mL)
- MIC ([3]; Acinetobacter baumannii, lead quinazolines, Table 8, read-out: MIC 1650): 35 µM (≈ 9.74 µg/mL)
- MIC ([3]; Tables 1, 3, 4, 5 and footnotes, read-out: 1650 MIC): 50 µM (≈ 13.9 µg/mL)
- MBC [4]: 9.3 µM (≈ 2.59 µg/mL)
- MBC ([5]; Acinetobacter baumannii, 1646, strain 1646, Table 8 and text, read-out: MBC90 1646): 0.77 µM (≈ 0.214 µg/mL)
- MBC ([5]; Acinetobacter baumannii, Table 6, representative data for isolate 1646, read-out: MBC90): 0.8 µM (≈ 0.223 µg/mL)
- MIC ([6]; Tables 1, 3, 4, 5 and footnotes, read-out: 1403 MIC): 10 µM (≈ 2.78 µg/mL)
- MIC ([6]; lead quinazolines, Table 8, read-out: MIC 1403): 10 µM (≈ 2.78 µg/mL)
- 1403 MIC ([6]; Table 2): 10 μm
